According to US9463173B2, “Compositions and methods for treating obesity and obesity-related conditions” (THE JOHNS HOPKINS UNIVERSITY, priority 2014, dated 2016):

How the values were obtained:
AMPK [1] = test: AMPK/ACC phosphorylation in primary mouse hepatocytes (immunoblot); assay type: cell-based; set-up: Phosphorylation (Ser79) of ACC / AMPK protein levels / ACC protein levels / Phosphorylation of ACC stimulated by VPA, in presence of AMPK inhibitor: dose or concentration left out as unconfirmed; settings: for Levels of phosphorylated AMPK/ACC compared with VPA: 20 mM metabolite vs 800 mM VPA, 2 hours; for Levels of phosphorylated AMPK/ACC at higher concentration: 100 mM metabolite (data not shown)
Description: (§1) Proteins (20 mg) were resolved by sodium dodecyl sulfate polyacrylamide gel electrophoresis, electrotransferred to a nitrocellulose membrane, and probed using antibodies against AMPKa, phosphorylated (p-) AMPKa (Thr172), ACC, p-ACC (Ser79), and b-actin (obtained from Cell Signaling Technology, Danvers, Mass.).

[2] = test system: HDAC activity of mouse liver nuclear extracts; test: HDAC activity fluorometric assay, crude nuclear extracts; assay type: biochemical; set-up: dose or concentration left out as unconfirmed; settings: mean ± S.D.
Description: (§2) FIG. 5A-5D. […] Deacetylation was measured using a fluorimetric assay. […] AMPKa was immunoprecipitated and immunoblotted for AMPKa and acetylated lysine (D). Immunoblots shown in D are representative of three independent experiments. Data in graphs are reported as the mean […] S.D. of samples from four independent experiments. […] DMSO, dimethylsulfoxide.
(§3) Analysis of HDAC activity was performed using an HDAC activity fluorometric assay kit (Caymen Chemicals, Ann Arbor, Mich.) and was carried out according to the manufacturer's instructions. Crude nuclear extracts were prepared from primary mouse hepatocytes as described in the manufacturer's instructions.

human recombinant HDAC1 = human recombinant HDAC1 (Homo sapiens, UniProt Q13547); test: HDAC activity fluorometric assay, recombinant HDAC1; assay type: biochemical; settings: 800 mM VPA; 1 mM TSA; 20 mM metabolites; mean ± S.D.
Description: as §2, §3

AMPK [3] = test: AMPK/ACC phosphorylation in primary human hepatocytes (immunoblot); assay type: cell-based; set-up: dose or concentration left out as unconfirmed; settings: 1 to 24 hours; following 1 hour; each of four donors
Description: Primary human hepatocytes were obtained from XenoTech LLC (Lenexa, Kans.). Four preparations were used: […]. The hepatocytes had reported viabilities of 95.4, 74.7, 77.9, and 74.9%, respectively. Upon receipt, the shipping medium was changed to Williams' E medium containing 10% FBS, penicillin, streptomycin, and L-glutamine. Following 24 hours of incubation at 37° C. and 5% CO2, the media was changed to 5% FBS, penicillin, streptomycin, and L-glutamine 4 hours prior to treatments.
as §1, with “Cells were harvested as previously described (Bumpus, 2011). Proteins” for “Proteins”

AMPKa = AMPKa acetylation status in hepatocytes (immunoprecipitation, acetylated lysine immunoblot); assay type: cell-based, mouse
Description: as §2

ob/ob mice = test: In vivo mouse study, 14 days via drinking water; settings: for Accumulation of fats in the liver (histology) compared with untreated mice: hematoxylin and eosin staining; for Body mass day 1: day 1 prior to treatment; for Body mass day 7 / Body mass day 14: 0.26% (w/v) VPA or 0.5% (w/v) metformin in drinking water
Description: FIG. 6A-6E. […] A section of each liver was analyzed using hemotoxylin and eosin staining Histology images are representative of four mice per treatment group (A). The mass of each liver was measured and calculated as a ratio to body mass (B). Serum glucose (C) and serum triglyceride (D) concentrations were measured using colorimetric assays. ALT was measured using a colorimetric assay to assess for hepatotoxicity (E). Data in graphs are reported as the mean […] S.D. of four mice per cohort.
All treatments of mice as a part of this study were in accordance with protocols that were approved by the Institutional Animal Care and Use Committee of The Johns Hopkins University School of Medicine. […] Body masses were recorded on day 1 prior to treatment, day 7, and day 14. After 14 days of drug treatments, all mice were euthanized by isoflurane inhalation followed by cervical dislocation, and whole blood was collected immediately. The livers were weighed immediately, rinsed in cold phosphate-buffered saline, and fixed in 10% formalin for 48 hours for hematoxylin and eosin staining.
Serum glucose was analyzed using a Colorimetric Glucose Assay obtained from BioVision, Inc. (Milpitas, Calif.) and was performed according to manufacturer's instructions. Serum triglycerides were analyzed utilizing a Serum Triglyceride Determination Kit obtained from Sigma-Aldrich and was performed according to manufacturer's instructions.

[4] = 10 mg/kg/day in adults; cited from earlier work

Chain of human recombinant HDAC1 (Q13547 whole entry): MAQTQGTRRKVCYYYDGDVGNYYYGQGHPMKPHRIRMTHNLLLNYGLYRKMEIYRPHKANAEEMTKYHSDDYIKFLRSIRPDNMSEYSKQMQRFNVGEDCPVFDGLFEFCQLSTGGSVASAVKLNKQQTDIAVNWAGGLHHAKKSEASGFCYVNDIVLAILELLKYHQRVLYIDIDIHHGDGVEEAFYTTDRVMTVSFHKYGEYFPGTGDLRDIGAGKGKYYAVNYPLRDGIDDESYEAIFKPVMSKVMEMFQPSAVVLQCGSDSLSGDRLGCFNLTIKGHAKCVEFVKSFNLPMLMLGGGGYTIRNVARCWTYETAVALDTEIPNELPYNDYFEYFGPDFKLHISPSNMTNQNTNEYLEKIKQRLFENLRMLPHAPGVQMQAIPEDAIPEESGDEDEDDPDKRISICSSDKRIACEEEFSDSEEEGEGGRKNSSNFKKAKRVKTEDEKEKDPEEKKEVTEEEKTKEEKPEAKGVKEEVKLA

C=CCC(CCC)C(=O)O (racemic) [4-ene-VPA, (+/−)-2-Propyl-4-pentenoic Acid]
Levels of phosphorylated AMPK/ACC compared with VPA (AMPK [1]): greater than treatment with VPA itself
Levels of phosphorylated AMPK/ACC at higher concentration (AMPK [1]): commensurate with those observed using 20 mM of metabolites
deacetylation as compared with samples treated with vehicle only [2]: 90.1±3.9%
deacetylation (human recombinant HDAC1): 81.5±15.5%

CC/C=C(\CCC)C(=O)O [2-ene-VPA, (E,Z) 2-Propyl-2-pentenoic Acid]
Levels of phosphorylated AMPK/ACC compared with VPA (AMPK [1]): greater than treatment with VPA itself
Levels of phosphorylated AMPK/ACC at higher concentration (AMPK [1]): commensurate with those observed using 20 mM of metabolites
deacetylation as compared with samples treated with vehicle only [2]: 93.6±3.6%
deacetylation (human recombinant HDAC1): 90±9.1%

CCCC(C(=O)O)C(O)CC (stereo not drawn) [3-OH-VPA, 3-Hydroxy-2-propylpentanoic Acid]
Levels of phosphorylated AMPK/ACC compared with VPA (AMPK [1]): greater than treatment with VPA itself
Levels of phosphorylated AMPK/ACC at higher concentration (AMPK [1]): commensurate with those observed using 20 mM of metabolites
deacetylation as compared with samples treated with vehicle only [2]: 98±3.9%
deacetylation (human recombinant HDAC1): 86±16.8%

CCCC(C(=O)[O-])C(=O)CC.[Na+] (stereo not drawn) [3-keto-VPA, 3-oxo-2-propyl-pentanoic Acid Sodium Salt]
deacetylation as compared with samples treated with vehicle only [2]: 94±7.3%
deacetylation (human recombinant HDAC1): 90.9±15.2%

Nn1nnc2ccccc21 [ABT, 1-aminobenzotriazole]
Levels of phosphorylated AMPK, ABT and VPA compared with ABT alone (AMPK [1]; 1 mM ABT 1 hour prior to VPA for 2 hours): not elevated

c1cc(-c2cnn3cc(-c4ccc(OCCN5CCCCC5)cc4)cnc23)ccn1 [Compound C, 6-[4-(2-piperidin-1-ylethoxy)phenyl]-3-pyridin-4-ylpyrazolo[1,5-a]pyrimidine]
Phosphorylation of ACC stimulated by VPA, in presence of AMPK inhibitor (AMPK [1]; Compound C 30 minutes prior to VPA for 2 hours): abrogated

CC(/C=C/C(=O)NO)=C\[C@@H](C)C(=O)c1ccc(N(C)C)cc1 [TSA, trichostatin A]
deacetylation as compared with samples treated with vehicle only [2]: 34.6±4.3%

CCCC(CCC)C(=O)O [VPA, valproic acid]
Concentration at which maximal phosphorylation of AMPK and ACC was observed (AMPK [1]; 2-hour treatment, concentrations from 200 mM to 2 mM): 800 mM
ACC protein levels (AMPK [1]; VPA): not significantly different
AMPK protein levels (AMPK [1]; VPA): did not change significantly
Phosphorylation (Ser79) of ACC (AMPK [1]; VPA, time course 1-24 hours): observed
Phosphorylation of AMPK and ACC (AMPK [3]): observed
deacetylation as compared with samples treated with vehicle only [2]: 76.4±1.2%
deacetylation (human recombinant HDAC1): 73.2±5%
Acetylation of AMPKa compared with vehicle treatment samples (AMPKa): commensurate
Accumulation of fats in the liver (histology) compared with untreated mice (ob/ob mice; 14 days): marked reduction
Body mass day 1 (ob/ob mice): 50.2 ± 3 g
Body mass day 7 (ob/ob mice): 51.8 ± 3 g
Body mass day 14 (ob/ob mice): 53.8 ± 2.7 g
Abnormalities in the histology of treated livers (ob/ob mice; mouse, in vivo): did not detect any abnormalities
Serum concentrations of VPA [4]: 400 to 1000 µM

CN(C)C(=N)N=C(N)N [metformin, Metformin]
Ratio of liver mass to body mass compared with untreated mice (ob/ob mice; 14 days): significantly decreased
Serum ALT activity (ob/ob mice; 14 days): 13.3±4 mU/ml
Serum glucose concentrations compared with untreated mice (ob/ob mice; 14 days): significantly decreased
Serum triglyceride concentrations compared with untreated mice (ob/ob mice; 14 days): decreased
Accumulation of fats in the liver (histology) compared with untreated mice (ob/ob mice; 14 days): marked reduction
Body mass day 1 (ob/ob mice): 45.4 ± 6 g
Body mass day 7 (ob/ob mice): 47.4 ± 5.6 g
Body mass day 14 (ob/ob mice): 50 ± 6.1 g
